Tests used:
Assay in all cases: cells
COLO-800 = format: functional, cell-based, Homo sapiens; settings: Homo sapiens, COLO-800;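 note: growth inhibition of COLO-800 cells, read out with a cell viability assay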
Description: SANGER: Inhibition of human COLO-800 cell growth in a cell viability assay.

Ca-Ski = format: functional, cell-based; settings: Homo sapiens;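 note: cell viability assay measuring inhibition of Ca-Ski cell growth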
Description: SANGER: Inhibition of human Ca-Ski cell growth in a cell viability assay.

DSH1 = format: functional, cell-based, Homo sapiens; settings: Homo sapiens, DSH1;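 note: growth inhibition of human DSH1 cells, measured with a cell viability readout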
Description: SANGER: Inhibition of human DSH1 cell growth in a cell viability assay.

EC-GI-10 = format: functional, cell-based, Homo sapiens; settings: Homo sapiens, EC-GI-10
Description: SANGER: Inhibition of human EC-GI-10 cell growth in a cell viability assay.

ES3 = format: functional, cell-based, Homo sapiens; settings: Homo sapiens, ES3;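 note: growth inhibition of ES3 cells, read out with a cell viability assay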
Description: SANGER: Inhibition of human ES3 cell growth in a cell viability assay.

EW-18 = format: functional, cell-based; settings: Homo sapiens;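 note: growth inhibition of EW-18 cells, read out by a cell viability assay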
Description: SANGER: Inhibition of human EW-18 cell growth in a cell viability assay.

GI-ME-N = format: functional, cell-based, Homo sapiens; settings: Homo sapiens, GI-ME-N;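 note: growth inhibition of human GI-ME-N cells, read out with a cell viability assay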
Description: SANGER: Inhibition of human GI-ME-N cell growth in a cell viability assay.

GMS-10 = format: functional, cell-based, Homo sapiens; settings: Homo sapiens, GMS-10;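 note: growth inhibition of GMS-10 cells, read out as cell viability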
Description: SANGER: Inhibition of human GMS-10 cell growth in a cell viability assay.

GOTO = format: functional, cell-based, Homo sapiens; settings: Homo sapiens, GOTO;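 note: growth inhibition of GOTO cells, read out by a cell viability assay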
Description: SANGER: Inhibition of human GOTO cell growth in a cell viability assay.

GP5d = format: functional, cell-based, Homo sapiens; settings: Homo sapiens, GP5d;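 note: growth inhibition of human GP5d cells, read out with a cell viability assay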
Description: SANGER: Inhibition of human GP5d cell growth in a cell viability assay.

H4 = format: functional, cell-based; settings: Homo sapiens
Description: SANGER: Inhibition of human H4 cell growth in a cell viability assay.

HAL-01 = format: functional, cell-based; settings: Homo sapiens;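 note: growth inhibition of human HAL-01 cells, read out with a cell viability assay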
Description: SANGER: Inhibition of human HAL-01 cell growth in a cell viability assay.

HCC1806 = format: functional, cell-based, Homo sapiens; settings: Homo sapiens, HCC1806;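 note: growth inhibition of the cancer cell line, determined with a cell viability assay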
Description: SANGER: Inhibition of human HCC1806 cell growth in a cell viability assay.

HDLM-2 = format: functional, cell-based; settings: Homo sapiens;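 note: cell viability assay measuring suppression of HDLM-2 proliferation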
Description: SANGER: Inhibition of human HDLM-2 cell growth in a cell viability assay.

HEL = format: functional, cell-based, Homo sapiens; settings: Homo sapiens, HEL;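 note: growth inhibition of HEL cells, read out with a cell viability assay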
Description: SANGER: Inhibition of human HEL cell growth in a cell viability assay.

HuO-3N1 = format: functional, cell-based, Homo sapiens; settings: Homo sapiens, HuO-3N1;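 note: cell viability readout used to measure how strongly compounds suppress proliferation of human HuO-3N1 cells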
Description: SANGER: Inhibition of human HuO-3N1 cell growth in a cell viability assay.

KYSE-410 = format: functional, cell-based, Homo sapiens; settings: Homo sapiens, KYSE-410;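 note: growth inhibition of KYSE-410 cells, measured through a cell viability readout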
Description: SANGER: Inhibition of human KYSE-410 cell growth in a cell viability assay.

KYSE-450 = format: functional, cell-based; settings: Homo sapiens;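 note: cell growth inhibition measured by a viability assay in human KYSE-450 cells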
Description: SANGER: Inhibition of human KYSE-450 cell growth in a cell viability assay.

LCLC-97TM1 = format: functional, cell-based, Homo sapiens; settings: Homo sapiens, LCLC-97TM1;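 note: cell viability assay measuring growth inhibition of human LCLC-97TM1 cells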
Description: SANGER: Inhibition of human LCLC-97TM1 cell growth in a cell viability assay.

M059J = format: functional, cell-based, Homo sapiens; settings: Homo sapiens, M059J;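 note: growth inhibition of M059J cells, read out with a cell viability assay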
Description: SANGER: Inhibition of human M059J cell growth in a cell viability assay.

MCF7 = format: functional, cell-based, Homo sapiens; settings: Homo sapiens, MCF7;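 note: growth inhibition of human MCF7 cells, read out with a cell viability assay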
Description: SANGER: Inhibition of human MCF7 cell growth in a cell viability assay.

MDA-MB-175-VII = format: functional, cell-based, Homo sapiens; settings: Homo sapiens, MDA-MB-175-VII
MFM-223 = format: functional, cell-based, Homo sapiens; settings: Homo sapiens, MFM-223
Description: SANGER: Inhibition of human MFM-223 cell growth in a cell viability assay.

MHH-PREB-1 = format: functional, cell-based; settings: Homo sapiens;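 note: cell viability assay measuring inhibition of proliferation of human MHH-PREB-1 cells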
Description: SANGER: Inhibition of human MHH-PREB-1 cell growth in a cell viability assay.

MOLT-4 = format: functional, cell-based; settings: Homo sapiens;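 note: growth inhibition of MOLT-4 cells, determined with a cell viability readout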
Description: SANGER: Inhibition of human MOLT-4 cell growth in a cell viability assay.

MZ7-mel = format: functional, cell-based, Homo sapiens; settings: Homo sapiens, MZ7-mel;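 note: growth inhibition of human MZ7-mel cells, measured by a cell viability assay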
Description: SANGER: Inhibition of human MZ7-mel cell growth in a cell viability assay.

NB5 = format: functional, cell-based, Homo sapiens; settings: Homo sapiens, NB5;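 note: growth inhibition of NB5 cells, read out as cell viability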
Description: SANGER: Inhibition of human NB5 cell growth in a cell viability assay.

NCI-H1155 = format: functional, cell-based; settings: Homo sapiens;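 note: cell growth inhibition measured by a viability assay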
Description: SANGER: Inhibition of human NCI-H1155 cell growth in a cell viability assay.

NCI-H1437 = format: functional, cell-based, Homo sapiens; settings: Homo sapiens, NCI-H1437;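 note: growth inhibition of human NCI-H1437 cells, read out by a cell viability assay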
Description: SANGER: Inhibition of human NCI-H1437 cell growth in a cell viability assay.

NCI-H1648 = format: functional, cell-based, Homo sapiens; settings: Homo sapiens, NCI-H1648;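 note: cell viability assay measuring inhibition of NCI-H1648 cell growth, from the Sanger screening data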
Description: SANGER: Inhibition of human NCI-H1648 cell growth in a cell viability assay.

NCI-H1651 = format: functional, cell-based, Homo sapiens; settings: Homo sapiens, NCI-H1651;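 note: Read-out is a cell viability assay, with IC50 expressing inhibition of NCI-H1651 cell growth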
Description: SANGER: Inhibition of human NCI-H1651 cell growth in a cell viability assay.

NCI-H1792 = format: functional, cell-based, Homo sapiens; settings: Homo sapiens, NCI-H1792;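 note: growth inhibition of human NCI-H1792 cells, read out as cell viability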
Description: SANGER: Inhibition of human NCI-H1792 cell growth in a cell viability assay.

NCI-H82 = format: functional, cell-based; settings: Homo sapiens;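 note: growth inhibition of NCI-H82 cells, measured with a cell viability readout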
Description: SANGER: Inhibition of human NCI-H82 cell growth in a cell viability assay.

NMC-G1 = format: functional, cell-based, Homo sapiens; settings: Homo sapiens, NMC-G1;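 note: growth inhibition of the NMC-G1 cell line, measured with a cell viability read-out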
Description: SANGER: Inhibition of human NMC-G1 cell growth in a cell viability assay.

ONS-76 = format: functional, cell-based, Homo sapiens; settings: Homo sapiens, ONS-76;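 note: growth inhibition of human ONS-76 cells, read out with a cell viability assay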
Description: SANGER: Inhibition of human ONS-76 cell growth in a cell viability assay.

SK-MEL-2 = format: functional, cell-based, Homo sapiens; settings: Homo sapiens, SK-MEL-2;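 note: growth inhibition of human SK-MEL-2 cells measured with a cell viability assay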
Description: SANGER: Inhibition of human SK-MEL-2 cell growth in a cell viability assay.

SK-MEL3 = format: functional, cell-based, Homo sapiens, SK-MEL-3; settings: Homo sapiens, SK-MEL3;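 note: growth inhibition of human SK-MEL-3 cells, read out with a cell viability assay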
Description: SANGER: Inhibition of human SK-MEL-3 cell growth in a cell viability assay.

SK-N-DZ = format: functional, cell-based, Homo sapiens; settings: Homo sapiens, SK-N-DZ;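 note: growth inhibition of the cancer cell line, read out through a viability assay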
Description: SANGER: Inhibition of human SK-N-DZ cell growth in a cell viability assay.

SW756 = format: functional, cell-based, Homo sapiens; settings: Homo sapiens, SW756;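 note: growth inhibition of human SW756 cells, read out with a cell viability assay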
Description: SANGER: Inhibition of human SW756 cell growth in a cell viability assay.

TE-1 = format: functional, cell-based, Homo sapiens; settings: Homo sapiens, TE-1
Description: SANGER: Inhibition of human TE-1 cell growth in a cell viability assay.

697 = format: functional, cell-based; settings: Homo sapiens
Description: SANGER: Inhibition of human 697 cell growth in a cell viability assay.

A498 = format: functional, cell-based, Homo sapiens; settings: Homo sapiens, A498;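 note: growth inhibition of human A498 cells, read out with a cell viability assay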
Description: SANGER: Inhibition of human A498 cell growth in a cell viability assay.

A673 = format: functional, cell-based, Homo sapiens; settings: Homo sapiens, A673;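 note: growth inhibition of human A673 cells, read out through a cell viability assay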
Description: SANGER: Inhibition of human A673 cell growth in a cell viability assay.

ASPC1 = format: functional, cell-based, Homo sapiens; settings: Homo sapiens, ASPC1;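 note: growth inhibition of AsPC-1 cells, read out with a cell viability assay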
Description: SANGER: Inhibition of human AsPC-1 cell growth in a cell viability assay.

BCPAP = format: functional, cell-based, Homo sapiens; settings: Homo sapiens, BCPAP;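 note: growth inhibition of BCPAP cells, read out in a cell viability assay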
Description: SANGER: Inhibition of human BCPAP cell growth in a cell viability assay.

BHY = format: functional, cell-based, Homo sapiens; settings: Homo sapiens, BHY;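 note: cell growth inhibition read out by a viability assay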
Description: SANGER: Inhibition of human BHY cell growth in a cell viability assay.

CAL-33 = format: functional, cell-based, Homo sapiens; settings: Homo sapiens, CAL-33;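 note: growth inhibition of CAL-33 cells, read out with a cell viability assay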
Description: SANGER: Inhibition of human CAL-33 cell growth in a cell viability assay.

CAL-39 = format: functional, cell-based, Homo sapiens; settings: Homo sapiens, CAL-39;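 note: cell viability assay measuring growth inhibition of CAL-39 cells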
Description: SANGER: Inhibition of human CAL-39 cell growth in a cell viability assay.

CAL-54 = format: functional, cell-based, Homo sapiens; settings: Homo sapiens, CAL-54;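 note: growth inhibition of CAL-54 cells, read out by a viability measurement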
Description: SANGER: Inhibition of human CAL-54 cell growth in a cell viability assay.

TE-12 = format: functional, cell-based; settings: Homo sapiens;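 note: growth inhibition of TE-12 cells, read out by a cell viability assay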
Description: SANGER: Inhibition of human TE-12 cell growth in a cell viability assay.

VMRC-RCZ = format: functional, cell-based; settings: Homo sapiens;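 note: growth inhibition measured with a cell viability assay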
Description: SANGER: Inhibition of human VMRC-RCZ cell growth in a cell viability assay.

CCRF-CEM = format: functional, cell-based; settings: Homo sapiens;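 note: inhibition of CCRF-CEM cell growth, measured by a cell viability assay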
Description: SANGER: Inhibition of human CCRF-CEM cell growth in a cell viability assay.

Measured: IC50

CN(Cc1cnc2nc(N)nc(N)c2n1)c1ccc(C(=O)N[C@@H](CCC(=O)O)C(=O)O)cc1 [METHOTREXATE]
63.8 nM: ONS-76
147 nM: GI-ME-N
89.1 nM: HuO-3N1
22.3 nM: HAL-01
21.2 nM: MOLT-4
43.1 nM: BCPAP
13.2 nM: MHH-PREB-1
12.6 nM: 697
11.5 nM: HEL
124 nM: COLO-800
10 nM: HDLM-2
114 nM: NCI-H1792
> 200 nM: all other assays above

O=C(c1cc(Cc2n[nH]c(=O)c3ccccc23)ccc1F)N1CCN(C(=O)C2CC2)CC1 [OLAPARIB]
2840 nM: 697
4890 nM: H4
442 nM: COLO-800
> 5000 nM: all other assays above
